In article PMC12300041, “Tricyclic Isatin Derivatives as Anti-Inflammatory Compounds with High Kinase Binding Affinity” (Molecules, 2025):

Legend:
Experiment in all cases: KINOMEscan
Format in all cases: binding
ABL1-non-P = target: T1, ABL1-non-P (Homo sapiens, UniProt P00519)
T1 construct: purchased Eurofins DiscoverX KINOMEscan
Method in brief: (§1)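 Read-out is qPCR of kinase not bound to the test compound, recovered by capture on an immobilized affinity ligand after a 1 h room-temperature binding step. Dissociation constants came from 12 half-log dilutions starting at 33 μM.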

AXL = target: T2, AXL (Homo sapiens, UniProt P30530)
T2 construct: purchased Eurofins DiscoverX KINOMEscan
Method in brief: as §1

BLK = target: T3, BLK (Homo sapiens, UniProt P51451)
T3 construct: purchased Eurofins DiscoverX KINOMEscan
Method in brief: as §1

BMPR1A = target: T4, BMPR1A (Homo sapiens, UniProt P36894)
T4 construct: purchased Eurofins DiscoverX KINOMEscan
Method in brief: as §1

CAMK1 = target: T5, CAMK1 (Homo sapiens, UniProt Q14012)
T5 construct: purchased Eurofins DiscoverX KINOMEscan
Method in brief: as §1

CAMK1B = target: T6, CAMK1B (Homo sapiens, UniProt Q6P2M8)
T6 construct: purchased Eurofins DiscoverX KINOMEscan
Method in brief: as §1

CAMK1D = target: T7, CAMK1D (Homo sapiens, UniProt Q8IU85)
T7 construct: purchased Eurofins DiscoverX KINOMEscan
Method in brief: as §1

CDKL2 = target: T8, CDKL2 (Homo sapiens, UniProt Q92772)
T8 construct: purchased Eurofins DiscoverX KINOMEscan
Method in brief: as §1

CLK3 = target: T9, CLK3 (Homo sapiens, UniProt P49761)
T9 construct: purchased Eurofins DiscoverX KINOMEscan
Method in brief: as §1

CSF1R-autoinhibited = target: T10, CSF1R-autoinhibited (Homo sapiens, UniProt P07333)
T10 construct: purchased Eurofins DiscoverX KINOMEscan
Method in brief: as §1

DCAMKL1 = target: T11, DCAMKL1 (Homo sapiens, UniProt O15075)
T11 construct: purchased Eurofins DiscoverX KINOMEscan
Method in brief: as §1

EGFR (L861Q) = target: T12, EGFR (L861Q) (Homo sapiens, UniProt P00533, L861Q)
T12 construct: purchased Eurofins DiscoverX KINOMEscan
Method in brief: as §1

EPHB1 = target: T13, EPHB1 (Homo sapiens, UniProt P54762)
T13 construct: purchased Eurofins DiscoverX KINOMEscan
Method in brief: as §1

EPHB3 = target: T14, EPHB3 (Homo sapiens, UniProt P54753)
T14 construct: purchased Eurofins DiscoverX KINOMEscan
Method in brief: as §1

FER = target: T15, FER (Homo sapiens, UniProt P16591)
T15 construct: purchased Eurofins DiscoverX KINOMEscan
Method in brief: as §1

FGR = target: T16, FGR (Homo sapiens, UniProt P09769)
T16 construct: purchased Eurofins DiscoverX KINOMEscan
Method in brief: as §1

FLT3 = target: T17, FLT3 (Homo sapiens, UniProt P36888)
T17 construct: purchased Eurofins DiscoverX KINOMEscan
Method in brief: as §1

GRK2 = target: T18, GRK2 (Homo sapiens, UniProt P25098)
T18 construct: purchased Eurofins DiscoverX KINOMEscan
Method in brief: as §1

JAK1 (JH1domain-cat.) = target: T19, JAK1 (JH1domain-cat.) (Homo sapiens, UniProt P23458)
T19 construct: JAK1 (JH1domain-cat.); purchased Eurofins DiscoverX KINOMEscan
Method in brief: as §1

JNK1 = target: T20, JNK1 (Homo sapiens, UniProt P45983)
T20 construct: purchased Eurofins DiscoverX KINOMEscan
Method in brief: as §1

MAP4K2 = target: T21, MAP4K2 (Homo sapiens, UniProt Q12851)
T21 construct: purchased Eurofins DiscoverX KINOMEscan
Method in brief: as §1

MARK2 = target: T22, MARK2 (Homo sapiens, UniProt Q7KZI7)
T22 construct: purchased Eurofins DiscoverX KINOMEscan
Method in brief: as §1

MKK7 = target: T23, MKK7 (Homo sapiens, UniProt O14733)
T23 construct: purchased Eurofins DiscoverX KINOMEscan
Method in brief: as §1

MLK2 = target: T24, MLK2 (Homo sapiens, UniProt Q02779)
T24 construct: purchased Eurofins DiscoverX KINOMEscan
Method in brief: as §1

MST1R = target: T25, MST1R (Homo sapiens, UniProt Q04912)
T25 construct: purchased Eurofins DiscoverX KINOMEscan
Method in brief: as §1

NEK1 = target: T26, NEK1 (Homo sapiens, UniProt Q96PY6)
T26 construct: purchased Eurofins DiscoverX KINOMEscan
Method in brief: as §1

PHKG1 = target: T27, PHKG1 (Homo sapiens, UniProt Q16816)
T27 construct: purchased Eurofins DiscoverX KINOMEscan
Method in brief: as §1

PIK3CA (Q546K) = target: T28, PIK3CA (Q546K) (Homo sapiens, UniProt P42336, Q546K)
T28 construct: purchased Eurofins DiscoverX KINOMEscan
Method in brief: as §1

PLK3 = target: T29, PLK3 (Homo sapiens, UniProt Q9H4B4)
T29 construct: purchased Eurofins DiscoverX KINOMEscan
Method in brief: as §1

QSK = target: T30, QSK (Homo sapiens, UniProt Q9Y2K2)
T30 construct: purchased Eurofins DiscoverX KINOMEscan
Method in brief: as §1

[1] = target: T31, RSK2 (Kin. Dom.1-N-term.) (Homo sapiens, UniProt P51812)
T31 construct: RSK2 (Kin. Dom.1-N-term.); purchased Eurofins DiscoverX KINOMEscan
Method in brief: as §1

SLK = target: T32, SLK (Homo sapiens, UniProt Q9H2G2)
T32 construct: purchased Eurofins DiscoverX KINOMEscan
Method in brief: as §1

SNRK = target: T33, SNRK (Homo sapiens, UniProt Q9NRH2)
T33 construct: purchased Eurofins DiscoverX KINOMEscan
Method in brief: as §1

STK16 = target: T34, STK16 (Homo sapiens, UniProt O75716)
T34 construct: purchased Eurofins DiscoverX KINOMEscan
Method in brief: as §1

STK36 = target: T35, STK36 (Homo sapiens, UniProt Q9NRP7)
T35 construct: purchased Eurofins DiscoverX KINOMEscan
Method in brief: as §1

TIE1 = target: T36, TIE1 (Homo sapiens, UniProt P35590)
T36 construct: purchased Eurofins DiscoverX KINOMEscan
Method in brief: as §1

TNIK = target: T37, TNIK (Homo sapiens, UniProt Q9UKE5)
T37 construct: purchased Eurofins DiscoverX KINOMEscan
Method in brief: as §1

ULK3 = target: T38, ULK3 (Homo sapiens, UniProt Q6PHR2)
T38 construct: purchased Eurofins DiscoverX KINOMEscan
Method in brief: as §1

WEE1 = target: T39, WEE1 (Homo sapiens, UniProt P30291)
T39 construct: purchased Eurofins DiscoverX KINOMEscan
Method in brief: as §1

T23 sequence (O14733 whole entry): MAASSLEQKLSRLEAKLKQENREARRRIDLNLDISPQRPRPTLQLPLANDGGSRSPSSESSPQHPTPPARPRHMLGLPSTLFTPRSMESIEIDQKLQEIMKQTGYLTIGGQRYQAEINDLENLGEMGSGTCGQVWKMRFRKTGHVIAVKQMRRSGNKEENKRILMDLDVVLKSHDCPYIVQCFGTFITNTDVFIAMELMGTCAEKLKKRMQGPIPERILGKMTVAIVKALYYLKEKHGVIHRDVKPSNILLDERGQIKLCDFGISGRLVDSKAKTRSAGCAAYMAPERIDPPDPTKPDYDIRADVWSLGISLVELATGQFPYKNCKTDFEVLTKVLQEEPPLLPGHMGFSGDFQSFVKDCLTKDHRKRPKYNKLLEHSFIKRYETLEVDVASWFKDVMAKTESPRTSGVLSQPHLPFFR
T20 sequence (P45983 whole entry): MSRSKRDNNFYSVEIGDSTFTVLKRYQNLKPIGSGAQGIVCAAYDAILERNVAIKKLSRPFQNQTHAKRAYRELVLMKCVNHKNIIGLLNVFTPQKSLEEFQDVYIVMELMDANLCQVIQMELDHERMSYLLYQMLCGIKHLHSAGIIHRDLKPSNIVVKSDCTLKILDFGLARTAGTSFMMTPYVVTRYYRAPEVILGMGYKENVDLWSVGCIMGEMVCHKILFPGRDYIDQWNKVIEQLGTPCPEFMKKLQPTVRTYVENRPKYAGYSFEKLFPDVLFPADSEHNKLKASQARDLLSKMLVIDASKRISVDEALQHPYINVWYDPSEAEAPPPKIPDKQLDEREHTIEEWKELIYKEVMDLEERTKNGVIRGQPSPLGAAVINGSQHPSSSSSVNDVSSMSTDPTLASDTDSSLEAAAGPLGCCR
T39 sequence (P30291 whole entry): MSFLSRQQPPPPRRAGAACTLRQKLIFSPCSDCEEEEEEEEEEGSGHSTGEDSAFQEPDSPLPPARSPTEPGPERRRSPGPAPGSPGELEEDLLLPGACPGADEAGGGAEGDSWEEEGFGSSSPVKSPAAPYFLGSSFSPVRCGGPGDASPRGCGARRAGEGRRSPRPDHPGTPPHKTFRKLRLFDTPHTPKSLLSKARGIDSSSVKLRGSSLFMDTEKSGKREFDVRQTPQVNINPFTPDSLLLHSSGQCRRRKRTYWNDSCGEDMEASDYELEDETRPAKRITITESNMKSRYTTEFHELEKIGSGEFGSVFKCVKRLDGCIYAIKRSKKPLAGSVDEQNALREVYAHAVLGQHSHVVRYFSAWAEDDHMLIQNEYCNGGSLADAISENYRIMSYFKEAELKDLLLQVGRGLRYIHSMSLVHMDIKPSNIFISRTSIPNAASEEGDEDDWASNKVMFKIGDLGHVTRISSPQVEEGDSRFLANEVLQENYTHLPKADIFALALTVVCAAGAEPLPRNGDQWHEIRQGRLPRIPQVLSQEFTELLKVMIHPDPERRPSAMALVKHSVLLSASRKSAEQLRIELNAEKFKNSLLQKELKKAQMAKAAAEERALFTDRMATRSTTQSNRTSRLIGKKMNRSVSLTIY
T15 sequence (P16591 whole entry): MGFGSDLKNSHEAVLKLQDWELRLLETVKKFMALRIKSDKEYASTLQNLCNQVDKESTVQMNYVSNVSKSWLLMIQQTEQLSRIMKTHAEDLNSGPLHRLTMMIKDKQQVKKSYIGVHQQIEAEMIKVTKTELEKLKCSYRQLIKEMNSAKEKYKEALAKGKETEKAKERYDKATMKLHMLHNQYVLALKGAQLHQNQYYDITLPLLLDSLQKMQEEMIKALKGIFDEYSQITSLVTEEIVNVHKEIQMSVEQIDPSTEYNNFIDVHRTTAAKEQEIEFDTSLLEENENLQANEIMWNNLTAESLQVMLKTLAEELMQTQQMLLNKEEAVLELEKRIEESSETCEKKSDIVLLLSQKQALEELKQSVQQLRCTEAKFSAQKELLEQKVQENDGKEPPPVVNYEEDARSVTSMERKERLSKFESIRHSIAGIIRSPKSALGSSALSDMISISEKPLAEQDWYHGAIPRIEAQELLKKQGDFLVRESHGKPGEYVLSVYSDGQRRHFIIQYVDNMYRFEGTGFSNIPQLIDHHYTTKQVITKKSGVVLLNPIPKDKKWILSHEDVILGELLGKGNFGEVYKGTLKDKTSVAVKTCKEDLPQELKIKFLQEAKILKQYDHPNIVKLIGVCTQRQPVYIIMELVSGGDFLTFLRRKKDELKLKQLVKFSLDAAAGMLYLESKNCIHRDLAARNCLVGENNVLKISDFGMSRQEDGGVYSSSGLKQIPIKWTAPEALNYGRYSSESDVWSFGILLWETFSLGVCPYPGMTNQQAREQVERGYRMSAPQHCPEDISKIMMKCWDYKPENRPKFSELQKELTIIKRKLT
T32 sequence (Q9H2G2 whole entry): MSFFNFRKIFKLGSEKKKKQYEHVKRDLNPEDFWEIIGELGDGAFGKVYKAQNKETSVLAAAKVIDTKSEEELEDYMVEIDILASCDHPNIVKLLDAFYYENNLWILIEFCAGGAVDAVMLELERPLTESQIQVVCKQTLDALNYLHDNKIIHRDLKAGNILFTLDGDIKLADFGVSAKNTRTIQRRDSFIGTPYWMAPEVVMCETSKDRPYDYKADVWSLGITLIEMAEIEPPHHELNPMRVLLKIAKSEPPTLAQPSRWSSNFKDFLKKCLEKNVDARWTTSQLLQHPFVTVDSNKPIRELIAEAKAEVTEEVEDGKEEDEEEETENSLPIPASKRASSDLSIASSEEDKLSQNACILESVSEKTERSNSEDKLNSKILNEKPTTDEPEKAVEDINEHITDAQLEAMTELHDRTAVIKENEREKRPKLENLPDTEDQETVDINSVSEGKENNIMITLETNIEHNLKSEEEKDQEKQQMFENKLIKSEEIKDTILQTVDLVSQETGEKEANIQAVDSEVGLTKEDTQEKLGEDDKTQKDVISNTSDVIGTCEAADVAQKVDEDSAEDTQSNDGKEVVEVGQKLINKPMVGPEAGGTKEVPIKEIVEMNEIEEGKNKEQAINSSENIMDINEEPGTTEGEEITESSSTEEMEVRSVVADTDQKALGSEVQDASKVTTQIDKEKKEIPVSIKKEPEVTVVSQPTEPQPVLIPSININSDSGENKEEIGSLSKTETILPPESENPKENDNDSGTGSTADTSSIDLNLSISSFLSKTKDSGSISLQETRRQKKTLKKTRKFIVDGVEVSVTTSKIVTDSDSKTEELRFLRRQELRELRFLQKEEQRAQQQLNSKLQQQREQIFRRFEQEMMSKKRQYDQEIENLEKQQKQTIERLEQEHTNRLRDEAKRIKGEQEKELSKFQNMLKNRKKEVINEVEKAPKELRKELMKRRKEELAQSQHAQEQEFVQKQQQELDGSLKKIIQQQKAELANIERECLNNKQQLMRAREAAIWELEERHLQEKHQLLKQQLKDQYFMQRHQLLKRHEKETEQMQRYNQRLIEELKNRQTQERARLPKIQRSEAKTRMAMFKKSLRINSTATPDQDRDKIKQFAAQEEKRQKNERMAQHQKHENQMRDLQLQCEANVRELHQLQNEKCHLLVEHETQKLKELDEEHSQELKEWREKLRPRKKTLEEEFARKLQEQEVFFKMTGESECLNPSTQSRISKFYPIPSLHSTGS
T12 sequence (P00533 25-1210 L861Q): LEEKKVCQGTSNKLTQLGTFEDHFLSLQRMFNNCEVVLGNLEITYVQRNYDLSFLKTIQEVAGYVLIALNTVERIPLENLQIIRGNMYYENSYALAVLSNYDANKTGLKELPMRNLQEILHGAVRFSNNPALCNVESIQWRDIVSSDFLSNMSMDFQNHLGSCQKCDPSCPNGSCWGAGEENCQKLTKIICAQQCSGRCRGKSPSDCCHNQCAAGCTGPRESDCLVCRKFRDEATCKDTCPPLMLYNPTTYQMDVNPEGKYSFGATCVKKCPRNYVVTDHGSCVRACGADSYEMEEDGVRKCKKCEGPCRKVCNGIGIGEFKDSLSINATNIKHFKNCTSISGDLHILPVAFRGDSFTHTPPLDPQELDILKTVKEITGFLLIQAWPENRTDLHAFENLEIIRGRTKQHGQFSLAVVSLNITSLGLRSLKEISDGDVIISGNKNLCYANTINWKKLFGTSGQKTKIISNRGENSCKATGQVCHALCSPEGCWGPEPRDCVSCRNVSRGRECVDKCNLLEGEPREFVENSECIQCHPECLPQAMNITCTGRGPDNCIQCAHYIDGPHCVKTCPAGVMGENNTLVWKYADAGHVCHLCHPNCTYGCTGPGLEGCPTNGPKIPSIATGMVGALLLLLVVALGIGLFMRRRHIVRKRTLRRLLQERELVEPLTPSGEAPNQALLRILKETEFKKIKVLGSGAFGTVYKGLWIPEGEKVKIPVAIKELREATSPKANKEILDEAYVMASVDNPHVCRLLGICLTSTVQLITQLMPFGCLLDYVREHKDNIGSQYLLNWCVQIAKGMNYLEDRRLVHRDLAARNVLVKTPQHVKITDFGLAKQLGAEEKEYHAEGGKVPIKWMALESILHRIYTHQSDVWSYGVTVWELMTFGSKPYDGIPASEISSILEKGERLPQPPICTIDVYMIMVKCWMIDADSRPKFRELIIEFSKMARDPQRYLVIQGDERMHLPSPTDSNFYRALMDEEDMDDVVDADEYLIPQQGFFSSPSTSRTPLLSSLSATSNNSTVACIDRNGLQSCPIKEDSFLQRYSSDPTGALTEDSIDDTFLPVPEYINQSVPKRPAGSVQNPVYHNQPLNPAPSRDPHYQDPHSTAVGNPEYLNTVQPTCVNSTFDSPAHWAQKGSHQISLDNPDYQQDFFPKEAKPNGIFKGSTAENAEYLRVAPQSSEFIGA
T6 sequence (Q6P2M8 whole entry): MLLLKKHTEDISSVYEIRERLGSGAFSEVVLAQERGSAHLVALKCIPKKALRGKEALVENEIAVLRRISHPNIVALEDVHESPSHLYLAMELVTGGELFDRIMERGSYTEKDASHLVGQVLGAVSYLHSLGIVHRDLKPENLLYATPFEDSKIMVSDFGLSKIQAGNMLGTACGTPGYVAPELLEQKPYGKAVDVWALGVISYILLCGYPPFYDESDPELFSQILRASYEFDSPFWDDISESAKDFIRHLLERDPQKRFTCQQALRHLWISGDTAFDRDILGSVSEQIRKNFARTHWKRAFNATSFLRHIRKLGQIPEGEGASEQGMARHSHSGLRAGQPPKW

## O=C1Nc2c(cc([N+](=O)[O-])c3c2CCCC3)C1=NO [Compound 5d, 3-(Hydroxyimino)-5-nitro-1,3,6,7,8,9-hexahydro-2H-benzo[g]indol-2-one]
ABL1-non-P
  inhibition at 10 µM: 54%
AXL
  inhibition at 10 µM: 17%
BLK
  inhibition at 10 µM: 23%
BMPR1A
  inhibition at 10 µM: 18%
CAMK1
  inhibition at 10 µM: 38%
CAMK1B
  inhibition at 10 µM: 12%
CAMK1D
  inhibition at 10 µM: 65%
CDKL2
  inhibition at 10 µM: 13%
CLK3
  inhibition at 10 µM: 19%
CSF1R-autoinhibited
  inhibition at 10 µM: 37%
DCAMKL1
  inhibition at 10 µM: 29%
EGFR (L861Q)
  inhibition at 10 µM: 12%
EPHB1
  inhibition at 10 µM: 0%
EPHB3
  inhibition at 10 µM: 0%
FER
  inhibition at 10 µM: 39%
FGR
  inhibition at 10 µM: 0%
FLT3
  inhibition at 10 µM: 12%
GRK2
  inhibition at 10 µM: 48%
JAK1 (JH1domain-cat.)
  inhibition at 10 µM: 0%
JNK1
  inhibition at 10 µM: 76%
MAP4K2
  inhibition at 10 µM: 53%
MARK2
  inhibition at 10 µM: 36%
MKK7
  inhibition at 10 µM: 0%
MKK7; 10 μM
  Inhib. (%): inactive
MLK2
  inhibition at 10 µM: 4%
MST1R
  inhibition at 10 µM: 0%
NEK1
  inhibition at 10 µM: 31%
PHKG1
  inhibition at 10 µM: 0%
PIK3CA (Q546K)
  inhibition at 10 µM: 40%
PLK3
  inhibition at 10 µM: 51%
QSK
  inhibition at 10 µM: 14%
[1]
  inhibition at 10 µM: 81%
SLK
  inhibition at 10 µM: 63%
SNRK
  inhibition at 10 µM: 22%
STK16
  inhibition at 10 µM: 72%
STK36
  inhibition at 10 µM: 10%
TIE1
  inhibition at 10 µM: 12%
TNIK
  inhibition at 10 µM: 65%
ULK3
  inhibition at 10 µM: 55%
WEE1
  inhibition at 10 µM: 16%
